Laboratory results: publication PMC5478271, “Chemical structure-guided design of dynapyrazoles, cell-permeable dynein inhibitors with a unique mode of action” (eLife, 2017)

Columns and labels:
His-dynein 1 = biological target: T1, His-dynein 1 (Homo sapiens, UniProt Q14204); assay: Ultraviolet light and ADP-vanadate-dependent photocleavage of dynein; assay type: biochemical; conditions: 4 µM compound
T1 construct: (wild-type, K1912A, K2601A, AA 1320–4646, uniprot: Q14204); made in house; host or cells: Sf9 insect cells (baculovirus)
T1 sequence (Q14204 1320-4646): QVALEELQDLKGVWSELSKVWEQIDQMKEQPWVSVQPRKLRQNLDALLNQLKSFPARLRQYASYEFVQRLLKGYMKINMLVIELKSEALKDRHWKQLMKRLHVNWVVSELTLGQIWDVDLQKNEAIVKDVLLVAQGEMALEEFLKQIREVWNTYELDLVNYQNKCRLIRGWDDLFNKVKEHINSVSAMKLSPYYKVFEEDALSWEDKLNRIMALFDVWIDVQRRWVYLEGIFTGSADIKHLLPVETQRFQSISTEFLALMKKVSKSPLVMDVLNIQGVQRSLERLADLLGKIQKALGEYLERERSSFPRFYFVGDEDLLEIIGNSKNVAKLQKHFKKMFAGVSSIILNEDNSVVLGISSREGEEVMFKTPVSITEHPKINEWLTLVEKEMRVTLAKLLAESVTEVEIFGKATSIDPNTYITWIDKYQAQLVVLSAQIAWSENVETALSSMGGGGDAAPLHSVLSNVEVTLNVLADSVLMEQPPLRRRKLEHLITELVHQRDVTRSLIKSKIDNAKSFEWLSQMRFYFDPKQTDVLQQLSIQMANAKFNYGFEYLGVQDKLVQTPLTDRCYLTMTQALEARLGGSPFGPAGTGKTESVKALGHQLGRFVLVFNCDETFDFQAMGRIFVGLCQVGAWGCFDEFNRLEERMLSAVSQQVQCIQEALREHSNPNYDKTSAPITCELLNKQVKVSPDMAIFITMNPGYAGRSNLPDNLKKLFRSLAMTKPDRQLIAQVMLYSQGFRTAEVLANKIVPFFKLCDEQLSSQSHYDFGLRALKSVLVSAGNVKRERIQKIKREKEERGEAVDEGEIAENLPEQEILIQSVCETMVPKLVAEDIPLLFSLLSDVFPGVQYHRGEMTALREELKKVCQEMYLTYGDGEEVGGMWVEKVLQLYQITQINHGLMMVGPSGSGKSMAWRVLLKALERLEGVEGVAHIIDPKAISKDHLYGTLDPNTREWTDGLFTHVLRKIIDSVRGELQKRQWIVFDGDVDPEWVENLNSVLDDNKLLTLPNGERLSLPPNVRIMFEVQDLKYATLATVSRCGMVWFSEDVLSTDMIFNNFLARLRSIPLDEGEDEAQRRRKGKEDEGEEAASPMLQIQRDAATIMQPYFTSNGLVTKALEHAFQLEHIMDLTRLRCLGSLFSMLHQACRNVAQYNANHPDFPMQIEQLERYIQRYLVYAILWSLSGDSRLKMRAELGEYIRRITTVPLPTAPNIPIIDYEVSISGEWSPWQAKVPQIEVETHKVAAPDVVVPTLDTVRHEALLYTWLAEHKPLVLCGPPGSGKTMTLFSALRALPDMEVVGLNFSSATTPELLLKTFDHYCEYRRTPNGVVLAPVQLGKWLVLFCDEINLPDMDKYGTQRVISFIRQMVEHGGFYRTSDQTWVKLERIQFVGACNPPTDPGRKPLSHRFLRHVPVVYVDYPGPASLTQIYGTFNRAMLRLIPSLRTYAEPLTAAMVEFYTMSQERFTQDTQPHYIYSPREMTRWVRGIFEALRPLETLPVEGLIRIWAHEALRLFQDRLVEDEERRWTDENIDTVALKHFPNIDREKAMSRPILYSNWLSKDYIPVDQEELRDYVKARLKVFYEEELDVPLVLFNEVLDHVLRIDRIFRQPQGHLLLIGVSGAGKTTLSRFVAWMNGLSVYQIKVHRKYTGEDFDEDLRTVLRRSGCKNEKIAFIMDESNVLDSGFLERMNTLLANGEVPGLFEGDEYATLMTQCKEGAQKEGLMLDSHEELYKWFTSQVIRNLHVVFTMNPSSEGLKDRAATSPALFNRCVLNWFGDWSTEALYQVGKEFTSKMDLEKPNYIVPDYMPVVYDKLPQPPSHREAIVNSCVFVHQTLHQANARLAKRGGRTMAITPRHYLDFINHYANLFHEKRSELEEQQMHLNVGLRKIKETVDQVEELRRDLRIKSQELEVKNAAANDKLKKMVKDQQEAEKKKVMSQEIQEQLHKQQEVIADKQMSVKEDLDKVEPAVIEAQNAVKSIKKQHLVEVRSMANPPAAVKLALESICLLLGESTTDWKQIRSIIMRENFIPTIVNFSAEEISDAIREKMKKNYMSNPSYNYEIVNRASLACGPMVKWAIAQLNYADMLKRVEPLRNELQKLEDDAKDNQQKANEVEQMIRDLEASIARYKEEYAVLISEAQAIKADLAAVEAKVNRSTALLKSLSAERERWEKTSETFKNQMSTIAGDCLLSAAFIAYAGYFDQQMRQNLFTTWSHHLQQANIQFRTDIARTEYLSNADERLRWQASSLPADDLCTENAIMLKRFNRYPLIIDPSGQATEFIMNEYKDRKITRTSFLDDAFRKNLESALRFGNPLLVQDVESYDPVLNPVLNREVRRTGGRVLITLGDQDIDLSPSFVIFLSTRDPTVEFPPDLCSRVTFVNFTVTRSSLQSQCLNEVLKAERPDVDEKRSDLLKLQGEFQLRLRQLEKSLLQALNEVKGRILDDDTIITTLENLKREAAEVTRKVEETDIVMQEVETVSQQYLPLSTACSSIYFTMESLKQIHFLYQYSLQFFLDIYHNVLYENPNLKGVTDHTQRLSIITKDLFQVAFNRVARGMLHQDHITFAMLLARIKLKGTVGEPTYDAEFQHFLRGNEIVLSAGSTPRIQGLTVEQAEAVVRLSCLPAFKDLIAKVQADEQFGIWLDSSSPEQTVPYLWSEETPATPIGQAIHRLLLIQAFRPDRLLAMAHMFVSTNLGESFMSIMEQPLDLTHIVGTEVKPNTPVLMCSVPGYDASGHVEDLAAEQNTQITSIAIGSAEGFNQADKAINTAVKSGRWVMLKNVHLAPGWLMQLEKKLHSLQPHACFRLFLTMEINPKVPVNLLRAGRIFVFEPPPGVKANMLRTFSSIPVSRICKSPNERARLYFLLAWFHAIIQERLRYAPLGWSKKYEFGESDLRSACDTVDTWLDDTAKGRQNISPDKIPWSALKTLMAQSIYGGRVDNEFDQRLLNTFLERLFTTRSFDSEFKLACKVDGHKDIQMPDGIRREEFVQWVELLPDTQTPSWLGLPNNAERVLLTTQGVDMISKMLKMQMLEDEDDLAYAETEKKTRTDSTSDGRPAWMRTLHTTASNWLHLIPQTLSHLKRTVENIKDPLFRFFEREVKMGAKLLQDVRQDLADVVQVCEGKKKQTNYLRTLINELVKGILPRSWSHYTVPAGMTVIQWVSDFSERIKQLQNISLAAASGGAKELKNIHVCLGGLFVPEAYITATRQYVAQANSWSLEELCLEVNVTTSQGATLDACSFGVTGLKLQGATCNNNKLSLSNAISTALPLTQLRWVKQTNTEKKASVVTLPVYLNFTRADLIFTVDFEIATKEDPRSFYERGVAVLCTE
Experimental: Thirty-microliter reactions were prepared in 96-well plates as follows. ATPase buffer was supplemented with concentrated stocks of His-dynein 1 (90nM final), compound 8 (4µM final) or an equivalent amount of solvent carrier (3.3% DMSO), followed by a 10 min incubation at room temperature. ATP (0.1 mM final) was added and the mixtures were incubated 5 min at room temperature. NaVO3 (0.1 mM final) was added and the mixtures were again incubated 5 min at room temperature. Vanadate was deliberately omitted from one well. The plate was then transferred to ice and irradiated with 365 nm light for 15 min with the lamp positioned 10 cm above the plate(Spectroline Maxima ML-3500S lamp). Following addition of SDS-PAGE loading buffer and heating (95°, 5 min), individual reactions were resolved on hand-poured 8% tris-glycine polyacrylamide gels. Gels were stained (Coomassie blue), imaged using a Li-Cor Odyssey, and band intensities were analyzed using FIJI.
Quantification of ADP-vanadate dependent photocleavage of dynein was performed as follows: Scanned gels were analyzed with FIJI, and fraction cleaved quantified as follows:
Fraction cleaved = (intensity of band at 250 kDa) /
(intensity of band at 250 kDa + intensity of band at ~350 kDa)

IMCD3 cells = assay: Cellular ATP content (CellTiter-Glo cytotoxicity assay); assay type: cell-based, murine
Experimental: Murine inner medullary collecting duct (IMCD3) cells stably expressing mNeonGreen-IFT88 (described previously [[Ye et al., 2013]]) were maintained in DMEM/F12 supplemented with 10% FBS. Cell line identity was confirmed by the proper localization and motility of mNeonGreen IFT88 puncta, in reference to published analyses from our groups and from the work of others ([Ye et al., 2013]; [Yang et al., 2015]). Cells were seeded in a 96-well plate at a density of 5 × 10^3 cells/well. Following overnight incubation, low-serum media (0.2% FBS) containing solvent control (0.3% DMSO) or compound. At fixed time points, CellTiter-Glo 2.0 (Promega) reagent was added to the wells, mixed by pipetting, and transferred to a white, opaque 96-well plate. After a 10 min incubation, luminescence for each condition was read using a Synergy Neo plate reader (1 s integration time per well).

`N#Cc1c(C2(c3ccc(Cl)cc3)CC2)nn2c1[nH]c(=O)c1cc(I)ccc12` [Compound 8, 2-[1-(4-chlorophenyl)cyclopropyl]-7-iodo-5-oxo-4H-pyrazolo[1,5-a]quinazoline-3-carbonitrile] was tested, and the “Reduction of ADP-vanadate dependent photocleavage relative to controls” value (His-dynein 1) was ~ 2.5 fold, the “ADP-vanadate dependent photocleavage of His-dynein 1” value (His-dynein 1; 100 µM ATP, 100 µM vanadate, control 42 ± 3%) was 17 ± 2% and the “ATP levels in cells” value (IMCD3 cells; 5 µM, low-serum or serum-free media) was “stable for up to 3 hr”. The “Lowering of intracellular ATP levels” value (IMCD3 cells; 15 µM, at 3 hr) was ~ 70%.
